These results are taken from patent publication US9278097B2, “Prophylaxis and/or treatment of portal hypertension” (Universitatsklinikum Freiburg, priority 2003, dated 2016).

Assay type in all cases: in vivo, human
Experiment [1] concerns volunteers. Kind of experiment: Sonographic / Doppler sonographic measurement of blood flow through the liver and blood pressure before and 90 minutes after oral Sildenafil. Conditions: 100 mg oral. The method, then:
With ten volunteers, the base values of the blood flow through the liver were measured in the morning before breakfast by means of common sonographic or Doppler sonographic methods. Subsequently, 100 mg Sildenafil were administered orally for each test person. On the average, 90 minutes after administration of this drug, the measurements were repeated.

For experiment [2], the system named is volunteers. The description is as above. Conditions: 100 mg oral, n = 5, baseline mean 0.83.
Experiment [3] relates to patients having portal hypertension (origin: liver cirrhosis in the status of Child A). Kind of experiment: Doppler sonography of liver haemodynamics before and 1 h after oral Vardenafil, patients. Conditions: continuous measurement after 10 mg oral, FIG. 4. The method, then: In a further study, 16 healthy volunteers and 15 patients having portal hypertension (origin: liver cirrhosis in the status of Child A) were subjected to the following treatment:
In both the volunteers and the patients with empty stomach (10 hours of food leave), firstly the pulse rate and blood pressure under lying condition and subsequently the parameters of liver haemodynamics were measured by Doppler sonography.
The portal vein pressure is derived from the values obtained from the application of the apparatus Elegra from Siemens having a 3.5 MHz sectorial scanner (K. Haag et al., Am. J. Roentgenol 1999; 172: 631-635). Each measurement was carried out three times in total. The mean value from all three measurements was used. The measurements were carried out in the resting expiratory position. When measuring the flows and the flow volumina, the sonic angle lied below 60°. The sectional plane was basically chosen such that the vessel will be illustrated in its longitudinal route.
Flow measurements in the Vena portae as well as in their intrahepatic main stems. The determination of the flow volume in the portal vein, the Vena lienalis and the Vena mesenterica was carried out by Doppler-sonography, as measured by the options of the apparatus and by calculation through the formula: flow=π·d^2/4·Vmax2·60, wherein d is indicated in cm and Vmax is indicated in cm/s. Vena Lienalis: […]

Experiment [4] has as its system patients, who had a pathological collateral or detour circulation, as originally caused by liver cirrhosis. Nature of the experiment: Doppler sonography of flow in the porto-systemic detour circulation before and after oral Vardenafil. To be noted: two patients, single oral administration of 10 mg. On the procedure:
Hereby, before and after a single oral administration of 10 mg Vardenafil, the flow in the porto-systemic detour circulation was measured by Doppler-sonography: once in a patient having V. coronaria ventriculi as well as oesophagus varices, and another time in a patient having re-opened V. umbilicalis.

Experiment [5] concerns patient having liver cirrhosis due to a chronic Hepatitis C. Kind of experiment: Invasive measurement of wedged hepatic vein pressure (portal vein pressure) by balloon catheter. To be noted: one patient, 25 minutes after 10 mg oral; 31 mm Hg prior to administration. The method, then:
In a patient having liver cirrhosis due to a chronic Hepatitis C, the wedged hepatic vein pressure, which can be equated with the portal vein pressure, was measured invasively. For this, a balloon catheter was introduced through the Vena jugularis interna into a small hepatic vein under X-ray control. Then, the free hepatic vein pressure may be measured, when the tip of the catheter lies freely in the lumen of the small vein. When the balloon is dilated (the diameter of this small hepatic vein amounts to a few mm), a congestion pressure is built-up at the tip of the catheter, corresponding to the portal vein pressure. In the tested patient, the portal vein pressure prior to the oral administration of a medicament was at 31 mm Hg.

Regarding `CCCc1nn(C)c2c(=O)[nH]c(-c3cc(S(=O)(=O)N4CCN(C)CC4)ccc3OCC)nc12` [Sildenafil, 1-{[3-(6,7-Dihydro-1-methyl-7-oxo-3-propyl-1H-pyrazolo-[4,3-d]pyrimidin-5-yl)-4-ethoxyphenyl]sulfonyl}-4-methyl-piperazine], in the experiment with volunteers [1] (90 minutes, n = 10), the “Diameter of V. lienalis, change by Sildenafil (in %)” value is “+13%”; the “Diameter of portal vein, change by Sildenafil (in %)” value was “+12.8%”; the “Diastolic blood pressure, change by Sildenafil (in %)” value is reported as −9.5%; the “Resistivity Index of A. hepatica communis, change by Sildenafil (in %)” value is given as “+4.48%”. Besides, in the experiment on volunteers [1] (90 minutes, n = 10), the “Resistivity Index of Truncus coeliacus, change by Sildenafil (in %)” value was −1.5%; the “Vmax of V. lienalis, change by Sildenafil (in %)” value is −2.3%; the “Vmax of portal vein, change by Sildenafil (in %)” value is on record as −5.3%. In addition, in the experiment on volunteers [1] (90 minutes, n = 10, baseline mean 0.67), the “Resistivity Index of A. hepatica communis, change by Sildenafil (absolute)” value is given as “+0.03”. Also, in the experiment on volunteers [1] (90 minutes, n = 10, baseline mean 0.75), the “Resistivity Index of Truncus coeliacus, change by Sildenafil (absolute)” value was −0.115. In addition, in the experiment on volunteers [1] (90 minutes, n = 10, baseline mean 7.7), the “Diameter of V. lienalis, change by Sildenafil (absolute)” value is given as 1.0 mm. In the experiment on volunteers [1] (90 minutes, n = 10, baseline mean 11.7), the “Diameter of portal vein, change by Sildenafil (absolute)” value stood at 1.5 mm. In addition, the “Vmax of V. lienalis, change by Sildenafil (absolute)” value with volunteers [1] (90 minutes, n = 10, baseline mean 20.14) was -0.47 cm/s. Also, the “Vmax of portal vein, change by Sildenafil (absolute)” value in the experiment with volunteers [1] (90 minutes, n = 10, baseline mean 30.5) is -1.63 cm/s. Besides, in the experiment with volunteers [1] (90 minutes, n = 10, baseline mean 80.5), the “Diastolic blood pressure, change by Sildenafil (absolute)” value is recorded as −7.64 mm Hg. The “Systolic blood pressure, change by Sildenafil (in %)” value in the experiment on volunteers [1] (on average 90 minutes after administration, n = 10) is reported as −10.0%. The “Systolic blood pressure, change by Sildenafil (absolute)” value with volunteers [1] (on average 90 minutes after administration, n = 10, baseline mean 122) is −12.21 mm Hg. Further, the “Portal vein flow, change by Sildenafil (absolute)” value with volunteers [2] is recorded as “+0.27 l/mm”.
In the case of `CCCc1nc(C)c2c(=O)[nH]c(-c3cc(S(=O)(=O)N4CCN(CC)CC4)ccc3OCC)nn12` [Vardenafil], the “Time after which increase of flow velocity in the portal vein and portal vein flow is clearly detectable” value in experiment [3] (individual patient (liver cirrhosis), similar in practically all other patients) came out at 15 min. Besides, in experiment [3] (individual patient), the “Time at which effect on portal vein flow is most pronounced” value is 20 to 30 min. Moreover, in experiment [4], the “Decrease of flow in the V. coronaria ventriculi or in the umbilical vein” value is “about 30%”. In experiment [5], the “Portal vein pressure (wedged hepatic vein pressure)” value turned out to be 26 mm Hg.
